Where “and” joins values, the source holds several entries; their conditions need not be identical. Equal values may be shown once. Read-outs that look alike come from different tables or passages of the source.
Experiments:
[1] = tested on: S. aureus ATCC 25923; assay: MIC determination (microdilution), S. aureus ATCC 25923; type: cell-based, Staphylococcus aureus; settings: for MIC: Staphylococcus aureus, ATCC25923, unstarred values of column MIC value/no precipitation, read-out: MIC value
Method: (§1) Determination of MIC values, i.e., intrinsic antibacterial activity, of products and antibiotics (oxacillin, ampicillin, vancomycin, ciprofloxacin, and erythromycin) in the presence and absence of compounds tested was conducted by the use of a standard 2-fold microdilution method in cation-adjusted Mueller Hinton broth following the Clinical and Laboratory Standards Institute (CLSI) guidelines. The MIC values were detected using an Infinite M200 pro Tecan microplate reader (Tecan® France, SA-Lyon, France). MIC determinations were conducted in 96-well microtiter plates and repeated 3–4 times.
(§2) Initially, MICs of a series of imidazolone derivatives were assessed against susceptible (reference) and MDR strains of staphylococci. Next, MIC values of the aforementioned antibiotics were determined in the absence and presence of imidazolone derivatives to assess the chemosensitizing effect of these compounds. […] 5-arylideneimidazolones and 5-arylidenethiazolones, which precipitated after addition to bacterial suspension in MH II medium, were tested at the highest concentrations at which precipitation was not observed. […] Antibacterial activity of compounds and antibiotics ampicillin, vancomycin, ciprofloxacin, and erythromycin was recorded as the lowest concentration of molecules able to inhibit bacterial growth after 18 h incubation at 37 °C. The incubation of bacterial strains exposed to oxacillin paired with compounds tested was conducted at 35 °C and extended to 24 h due to frequent occurrence of heterogeneity among MRSA strains. The results are presented as activity gain (A) parameter which was calculated as ratio of MIC of a certain antibiotic (MICAnt) to its MICAnt+Comp, observed in combination with a tested compound (7, 12–16, 19, or 20; Equation (1)). (1) A=(MICAnt/MICAnt+Comp)

[2] = tested on: MRSA 19449; assay: MIC determination (microdilution), MRSA 19449; type: cell-based, Staphylococcus aureus; settings: for MIC: Staphylococcus aureus, MRSA, no precipitation
Method: as §1, §2

[3] = tested on: K. aerogenes Ea-294, Ea-308 (devoid of AcrAB); assay: MIC of compounds, K. aerogenes Ea-294, Ea-308; type: cell-based; settings: Klebsiella aerogenes, read-out: Minimal Inhibitory Concentration (MIC)
Text: (§3) A subset of compounds, namely 7, 12–16, 19, 20, was also examined for the potential to increase the effectiveness of the antibiotics chloramphenicol, erythromycin, doxycycline, and the fluoroquinolone antibiotic norfloxacin, which all are substrates for AcrAB-TolC in K. aerogenes. In addition to strain Ea-289, the adjuvant-like effect of the compounds was investigated in strain CM-64, which also overexpresses the AcrAB-TolC efflux pump, although it has no changes in porin content, and in the Ea-289 derivatives, i.e., Ea-294 and Ea-308, which are devoid of AcrAB (Table S17, Supplementary).
as §1
(§4) MIC values of 5-arylideneimidazolone derivatives were determined following CLSI recommendations as in the methods described for S. aureus (Section 3.3.1).

[4] = tested on: K. aerogenes Ea-289 (overexpression of AcrAB-TolC); assay: MIC of compounds, K. aerogenes Ea-289; type: cell-based; settings: Klebsiella aerogenes
Method: At first, MIC values of compounds were determined (Table S15, Supplementary). Next, their abilities to reduce MICs of the AcrAB-TolC substrates doxycycline (a tetracycline-class antibiotic) and erythromycin were studied (Table S16, Supplementary). […]
as §1, §4

[5] = tested on: K. aerogenes CM-64 (overexpression of AcrAB-TolC); assay: MIC of compounds, K. aerogenes CM-64; type: cell-based; settings: Klebsiella aerogenes, read-out: Minimal Inhibitory Concentration (MIC)
Text: as §3, §1, §4

[6] = tested on: K. aerogenes Ea-294, Ea-308; assay: MIC reduction assay (antibiotic adjuvant), K. aerogenes Ea-294, Ea-308; type: cell-based, Klebsiella aerogenes; settings: doxycycline, chloramphenicol, norfloxacin, erythromycin;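 also: compound at no more than one quarter of its own MIC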
Text: as §3, §2, §4

[7] = tested on: K. aerogenes Ea-289; assay: MIC reduction assay (antibiotic adjuvant), K. aerogenes Ea-289; type: cell-based, Klebsiella aerogenes;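 also: compound at no more than one quarter of its own MIC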
Method: At first, MIC values of compounds were determined (Table S15, Supplementary). Next, their abilities to reduce MICs of the AcrAB-TolC substrates doxycycline (a tetracycline-class antibiotic) and erythromycin were studied (Table S16, Supplementary).
as §3, §2, §4

[8] = tested on: K. aerogenes CM-64; assay: MIC reduction assay (antibiotic adjuvant), K. aerogenes CM-64; type: cell-based, Klebsiella aerogenes; settings: doxycycline, chloramphenicol, norfloxacin, erythromycin;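 also: compound at no more than one quarter of its own MIC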
Text: as §3, §2, §4

[9] = tested on: AcrAB-TolC efflux pump in K. aerogenes strain Ea-289; assay: Real-time efflux (RTE) assay, 1,2'-dNA extrusion; type: cell-based, Klebsiella aerogenes; settings: compound 100 µM; IE=100% total inhibition of efflux
Method: Compounds 7, 12–16, 19, and 20 were also assessed for their EPI property in K. aerogenes strain Ea-289 with the use of a real-time efflux (RTE) assay. Results for compounds 16 and 20 were previously described. The experiment is based on the measurement of the extrusion of a fluorescent dye from bacterial cells overproducing efflux pump transporters in the presence and absence of compounds tested. The dye used in this assay, 1,2’ –dinaphthylamine (1,2’-dNA), is a substrate for the AcrAB-TolC efflux pump, and is strongly fluorescent upon incorporation into a phospholipid bilayer, although it is almost non-fluorescent in an aqueous solution [37, 38].
A likewise strong blocking efficacy (IE = 83 %) was also noticed for compound 12, while the lowest inhibitory effect was found for compound 13 (IE = 23 %).
The inhibitory activity of 5-arylideneimidazolone derivatives towards AcrAB-TolC mediated efflux of 1,2’-dNA was detected in K. aerogenes strain Ea-289 by using a real-time fluorometric method. In a first step, bacterial cells were loaded with the environment-sensitive fluorescent membrane probe, 1,2’-dNA, in the presence of the EPI carbonyl cyanide m-chlorophenylhydrazone (CCCP) which inactivated the pump by dissipating membrane potential. Next, compounds tested were added at the concentration of 100 µM and the efflux was energizing by automated injection of glucose at a dose of 50 µM. The fluorescence intensity was measured in a microplate reader (Tecan) with an excitation wavelength of λex = 370 nm and an emission wavelength of λem = 420 nm.

[10] = Water solubility (UV spectroscopy); type: physicochemical
Text: Six representatives of 5-arylideneimidazolones (9–12, 15, 19) were chosen for the determination of water solubility. UV spectroscopy was used for the estimation of concentrations of compounds according to the method described earlier. Acquired UV absorbance, calculated means, and standard deviations for tested compounds are presented in Supplementary Table S18. Solubility results, presented in Table 6, point out that compounds from the same group (A or B, Table 1 and Table 2) with the two-ring aromatic moiety are more soluble than compounds with the fluorene motive (Group A: 9, 10, 11 vs. 12; Group B: 15 vs. 19). […] The most soluble of tested compounds was compound 15, which could be dissolved in water at a concentration of up to 205.502 mM/L.
Water solubility was obtained using UV spectroscopy method. Absorbance of tested solutions of compounds 9-12, 15, and 19, respectively in suitable dilution, in three repetitions as well as calculated arithmetic means, solubility and standard deviations are presented in Table S18. the solubility results […]
Table S18. Results of absorbance used for estimation of water solubility of tested compounds (9-12, 15, 19).
Abbreviations: A1, A2,and A3, UV absorbance in first, second, and third repetition; Amean, arithmetic mean of absorbance from three repetitions; s, standard deviation for absorbance; S, water solubility; SD – standard deviation for solubility. […]

[11] = Stability in acidic and basic conditions (TLC); type: physicochemical; settings: for Number of TLC spots: 1 = stable
Method: Compounds 9–12, 15, and 19 were also tested for their stability in acidic and basic conditions. This assay was carried out for 48 h and samples were taken at six-time intervals (10 min, 1 h, 2 h, 3 h, 24 h, 48 h). Stability of the compounds was determined using the TLC method. […] In basic conditions, only compounds 10 and 15 were stable for 24 h. […] Results with details, including time of degradation of products obtained, are presented in the Supplementary (Tables S19 and S20). […]
VI. Stability in different pH conditions
Stability of chosen compounds (9-12, 15, and 19) were determined using the TLC method. Assays were performed in acidic and basic conditions and were carried out for 48 h. Samples were taken at six-time intervals (10 min., 1 h, 2 h, 3 h, 24 h, 48 h). […]
of spots observed on TLC, where 1 indicate that compound is stable (only TLC spot for proper compound was observed). Higher values point out how many products of degradation was observed, which can be calculating by subtracting one from number of spots.
Table S19. Results of chosen compounds (9-12, 15, 19) stability in acidic conditions.
Compound Number of TLC spots in defined time
Table S20. Results of chosen compounds (9-12, 15, 19) stability in basic conditions.

[12] = read-out: MIC value/no precipitation
[13] = read-out: Minimal Inhibitory Concentration (MIC)
[14] = doxycycline, chloramphenicol, norfloxacin, erythromycin

## O=C1NC(N2CCOCC2)=N/C1=C\c1ccc(-c2ccccc2)cc1 [Compound 7]
[1]
  MIC: 31.2 to 250 µM
[2]
  MIC: 31.2 to 250 µM
[3]
  MIC: 2000 µM
[4]; [12]
  MIC: > 250 µM
[4]; [13]
  MIC: > 2000 µM
[5]
  MIC: > 2000 µM
[6]
  A (activity gain): 1
[7]; doxycycline
  A (activity gain): 1
[7]; [14]
  A (activity gain): 1
[7]; erythromycin
  A (activity gain): 1
[8]
  A (activity gain): 1
[9]
  Inhibition efficiency (IE) towards extrusion of 1,2'-dNA: 59%

## O=C1NC(N2CCC(N3CCOCC3)CC2)=N/C1=C\c1ccc(-c2ccccc2)cc1 [Compound 8]
[2]
  MIC: 31.2 to 250 µM
[4]; [12]
  MIC: > 250 µM
[7]; doxycycline
  A (activity gain): 1
[7]; erythromycin
  A (activity gain): 1

## O=C1NC(N2CCC(N3CCOCC3)CC2)=N/C1=C\c1cccc(Oc2ccccc2)c1 [Compound 9]
[1]
  MIC: 31.2 to 250 µM
[2]
  MIC: 31.2 to 250 µM
[4]; [12]
  MIC: > 250 µM
[7]; doxycycline
  A (activity gain): 1
[7]; erythromycin
  A (activity gain): 1
[10]
  solubility: 1480 µg/mL and 3170 µM
[11]; acidic conditions, 10 min
  Number of TLC spots: 2
[11]; acidic conditions, 1 h
  Number of TLC spots: 2
[11]; acidic conditions, 2 h
  Number of TLC spots: 2
[11]; acidic conditions, 3 h
  Number of TLC spots: 2
[11]; acidic conditions, 24 h
  Number of TLC spots: 2
[11]; acidic conditions, 48 h
  Number of TLC spots: 2
[11]; basic conditions, 10 min
  Number of TLC spots: 2
[11]; basic conditions, 1 h
  Number of TLC spots: 2
[11]; basic conditions, 2 h
  Number of TLC spots: 2
[11]; basic conditions, 3 h
  Number of TLC spots: 2
[11]; basic conditions, 24 h
  Number of TLC spots: 2
[11]; basic conditions, 48 h
  Number of TLC spots: 2

## O=C1NC(N2CCC(N3CCOCC3)CC2)=N/C1=C\c1ccc(Oc2ccccc2)cc1 [Compound 10]
[2]
  MIC: 31.2 to 250 µM
[4]; [12]
  MIC: > 250 µM
[7]; doxycycline
  A (activity gain): 1
[7]; erythromycin
  A (activity gain): 1
[10]
  solubility: 2680 µg/mL and 5740 µM
[11]; acidic conditions, 10 min
  Number of TLC spots: 1
[11]; acidic conditions, 1 h
  Number of TLC spots: 1
[11]; acidic conditions, 2 h
  Number of TLC spots: 1
[11]; acidic conditions, 3 h
  Number of TLC spots: 1
[11]; acidic conditions, 24 h
  Number of TLC spots: 1
[11]; acidic conditions, 48 h
  Number of TLC spots: 2
[11]; basic conditions
  time stable: 24 h
[11]; basic conditions, 10 min
  Number of TLC spots: 1
[11]; basic conditions, 1 h
  Number of TLC spots: 1
[11]; basic conditions, 2 h
  Number of TLC spots: 1
[11]; basic conditions, 3 h
  Number of TLC spots: 1
[11]; basic conditions, 24 h
  Number of TLC spots: 1
[11]; basic conditions, 48 h
  Number of TLC spots: 2

## O=C1NC(N2CCC(N3CCOCC3)CC2)=N/C1=C\c1c2ccccc2cc2ccccc12 [Compound 13]
[1]
  MIC: 31.2 to 250 µM
[2]
  MIC: 31.2 to 250 µM
[3]
  MIC: 2000 µM
[4]; [12]
  MIC: > 250 µM
[4]; [13]
  MIC: > 2000 µM
[5]
  MIC: > 2000 µM
[6]
  A (activity gain): 1
[7]; doxycycline
  A (activity gain): 1
[7]; [14]
  A (activity gain): 1
[7]; erythromycin
  A (activity gain): 1
[8]
  A (activity gain): 1
[9]
  Inhibition efficiency (IE) towards extrusion of 1,2'-dNA: 23%

## NC1=N/C(=C\c2ccc(Oc3ccccc3)cc2)C(=O)N1CCCN1CCOCC1 [Compound 17]
[2]
  MIC: 31.2 to 250 µM
[4]; [12]
  MIC: > 250 µM
[7]; doxycycline
  A (activity gain): 1
[7]; erythromycin
  A (activity gain): 1

## NC1=N/C(=C\c2cc3ccccc3c3ccccc23)C(=O)N1CCCN1CCOCC1 [Compound 21]
[1]
  MIC: 31.2 to 250 µM
[2]
  MIC: 31.2 to 250 µM
[4]; [12]
  MIC: > 250 µM
[7]; doxycycline
  A (activity gain): 1
[7]; erythromycin
  A (activity gain): 1

## Cc1onc(-c2ccccc2)c1C(=O)N[C@@H]1C(=O)N2[C@@H]1SC(C)(C)[C@@H]2C(=O)O [oxacillin, reference compound]
[1]; oxacillin alone
  MIC of the antibiotic alone: 0.25 µg/mL
[2]; oxacillin alone
  MIC of the antibiotic alone: 256 µg/mL
